What was measured:
Type in all cases: cell-based
[1] = system: Streptococcus mutans NCTC 11061; experiment: Nominal Inhibitory Concentration (spiral plater); details: 24 hrs BA 37° C.
Experimental: (§1) A broth, appropriate to the microorganism to be tested (see Table 1 below), was inoculated aseptically from a pure plate culture and then incubated as indicated in Table 1.
(§2) Following the correct incubation, the liquid culture was diluted in a sterile saline solution to give approximately 10^5 to 10^6 CFU/ml. The suspension was serially diluted and spread plates were prepared for each dilution so as to obtain an accurate CFU/ml value.
(§3) The spiral plater was prepared by passing one cupule of IMS followed by one cupule of sterile water through the plater with the valve open and vacuum pump on. With the spiral plater cam on “Linear Deposition”, the suspension of micoorganism to be tested was placed in a new cupule. The suspension was taken up, ensuring that the glass tube was full, and the organisms were then deposited in an even spiral onto agar plates.
(§4) The depth of the agar was measured on the plates and this value recorded. Negative control plates with no added active were produced in triplicate.
(§5) The spiral plater was washed with one cupule of IMS and one cupule of sterile deionised water in-between the inoculation of different microbial samples. Once the microbial inocula had dried, the spiral plater was washed and the cam changed to “Gradient Deposition”. The antimicrobial solution was deposited in a spiral gradient directly on top of the dried inoculated spiral. Loperamide hydrochloride was used at concentrations of 1% and 0.3% made up in 50% dimethyl sulphoxide.
(§6) The spiral plater was washed with one cupule of IMS and one of sterile deionised water in-between different antimicrobial solutions. The solutions were left to dry before being incubated, at 37° C. for 24 hr, +/−6 hr or 48 hr +/−6 hr for anaerobes (see Table 1).
(§7) Following incubation, the control plates were checked to have grown to the end of the spiral inoculum. Digital calipers were used to measure the distance between the inoculation point and the point where confluent growth starts. The distance value termed the Radial Advance was used to determine the Deposition Factor (DF). The NIC can be calculated from the following formula:
(§8) NIC=Nominal Inhibitory Concentration (e.g. ppm)
(§9) SC=Stock concentration of antimicrobial (e.g. ppm)
(§10) ha=height of agar in plate (mm)

[2] = system: Pseudomonas stutzeri NCTC 10475; experiment: Nominal Inhibitory Concentration (spiral plater); details: 24 hrs BA 37° C.
Experimental: as §1, §2, §3, §4, §5, §6, §7, §8, §9, §10

[3] = system: Streptococcus oralis NCTC 11427; experiment: Nominal Inhibitory Concentration (spiral plater); details: 24 hrs BA 37° C.
Experimental: as §1, §2, §3, §4, §5, §6, §7, §8, §9, §10

[4] = system: Staphylococcus aureus ATCC 6538; experiment: Nominal Inhibitory Concentration (spiral plater); details: 24 hrs TSA 37° C.
Experimental: as §1, §2, §3, §4, §5, §6, §7, §8, §9, §10

[5] = system: Pseudomonas aeruginosa ATCC 9027; experiment: Nominal Inhibitory Concentration (spiral plater); details: 24 hrs BA 37° C.
Experimental: as §1, §2, §3, §4, §5, §6, §7, §8, §9, §10

[6] = system: Candida albicans NCYC 1363; experiment: Nominal Inhibitory Concentration (spiral plater); details: 24 hrs SDA 37° C.
Experimental: as §1, §2, §3, §4, §5, §6, §7, §8, §9, §10

[7] = system: Staphylococcus epidermidis ATCC 8853; experiment: Nominal Inhibitory Concentration (spiral plater); details: 24 hrs TSA 37° C.
Experimental: as §1, §2, §3, §4, §5, §6, §7, §8, §9, §10

[8] = system: Escherichia coli NCTC 8545; experiment: Nominal Inhibitory Concentration (spiral plater); details: 24 hrs BA 37° C.
Experimental: as §1, §2, §3, §4, §5, §6, §7, §8, §9, §10

[9] = system: Fusobacterium nucleatum NCTC 10562; experiment: Nominal Inhibitory Concentration (spiral plater); details: 48 hrs BA 37° C. (anaerobically)
Experimental: as §1, §2, §3, §4, §5, §6, §7, §8, §9, §10

[10] = system: Lactobacillus acidophillus NCTC 4505; experiment: Nominal Inhibitory Concentration (spiral plater); details: 24 hrs BA 37° C.
Experimental: as §1, §2, §3, §4, §5, §6, §7, §8, §9, §10

[11] = system: Streptococcus sanguis NCTC 10904; experiment: Nominal Inhibitory Concentration (spiral plater); details: 24 hrs BA 37° C.
Experimental: as §1, §2, §3, §4, §5, §6, §7, §8, §9, §10

[12] = system: Pseudomonas cepacia ATCC 25416; experiment: Nominal Inhibitory Concentration (spiral plater); details: 24 hrs BA 37° C.
Experimental: as §1, §2, §3, §4, §5, §6, §7, §8, §9, §10

[13] = system: Bacillus subtilis ATCC 6633; experiment: Nominal Inhibitory Concentration (spiral plater); details: 24 hrs BA 37° C.
Experimental: as §1, §2, §3, §4, §5, §6, §7, §8, §9, §10

[14] = system: Propionibacterium acnes NCTC 737; experiment: Nominal Inhibitory Concentration (spiral plater); details: 48 hrs BA 37° C. anaerobically, loperamide hydrochloride 1% and 0.3% in 50% dimethyl sulphoxide
Experimental: as §1, §2, §3, §4, §5, §6, §7, §8, §9, §10

[15] = system: Micrococcus luteus NCIB 8166; experiment: Nominal Inhibitory Concentration (spiral plater); details: 24 hrs BA 37° C.
Experimental: as §1, §2, §3, §4, §5, §6, §7, §8, §9, §10

[16] = system: Sphingomonas paucimobilis NCTC 11030; experiment: Nominal Inhibitory Concentration (spiral plater); details: 24 hrs BA 37° C.
Experimental: as §1, §2, §3, §4, §5, §6, §7, §8, §9, §10

[17] = system: S. mutans, S. sanguis, S. aureus, C. albicans, Methicillin resistant S. aureus, P. acnes; experiment: Effective kill times of antimicrobial solutions; details: loperamide in 2.5% dimethyl sulphoxide; sampled at 30 seconds, 1, 2 and 5 minutes; data only in FIGS. 1-6
Experimental: A suitable broth culture of the test organism was prepared (see Table 3 below). Cultures were diluted (1:10) using a Ringer and Peptone solution. 30 ml volumes of loperamide made up in 2.5% dimethyl sulphoxide were prepared. The samples were then inoculated with 30 ml of the initial microorganism suspension, and at time intervals of 30 seconds, 1, 2 and 5 minutes, 1 ml of the sample was removed and added to 9 ml of Dey-Engley neutralizing broth. Two further serial dilutions were then prepared.
0.1 ml from the Dey-Engley broths and subsequent dilutions were spread plated and then incubated. See Table 3 below for the appropriate agar and incubation conditions.

CN(C)C(=O)C(CCN1CCC(O)(c2ccc(Cl)cc2)CC1)(c1ccccc1)c1ccccc1 [Loperamide, 4-(p-chlorophenyl)-4-hydroxy-N,N-dimethyl-α,α-diphenyl-1-piperidinebutyramide]
NIC [1]: 30 ppm
NIC [2]: 21 ppm
NIC [3]: 24 ppm
NIC [4]: 34 ppm
NIC [5]: >165 ppm
NIC [6]: 39 ppm
NIC [7]: 33 ppm
NIC [8]: >165 ppm
NIC [9]: 7 ppm
NIC [10]: 18 ppm
NIC [11]: 27 ppm
NIC [12]: 36 ppm
NIC [13]: 9 ppm
NIC [14]: 16 ppm
NIC [15]: 9 ppm
NIC [16]: 11 ppm
bactericidal properties (kill time) [17]: good bactericidal properties
